Laboratory results from ChEMBL document CHEMBL2311409, “Design, synthesis and biological evaluation of coumarin alkylamines as potent and selective dual binding site inhibitors of acetylcholinesterase” (Bioorg Med Chem, 2013).

Key:
[1] = target: Cholinesterase (Equus caballus) (UniProt P81908); test: Inhibition of equine butyrylcholinesterase using butyrylthiocholine as substrate at 10 uM incubated for 20 mins prior to substrate addition measured after 3 mins by Ellman's method
Acetylcholinesterase [2] = target: T1, Acetylcholinesterase (Bos taurus, UniProt P23795)
T1 sequence (P23795 whole entry): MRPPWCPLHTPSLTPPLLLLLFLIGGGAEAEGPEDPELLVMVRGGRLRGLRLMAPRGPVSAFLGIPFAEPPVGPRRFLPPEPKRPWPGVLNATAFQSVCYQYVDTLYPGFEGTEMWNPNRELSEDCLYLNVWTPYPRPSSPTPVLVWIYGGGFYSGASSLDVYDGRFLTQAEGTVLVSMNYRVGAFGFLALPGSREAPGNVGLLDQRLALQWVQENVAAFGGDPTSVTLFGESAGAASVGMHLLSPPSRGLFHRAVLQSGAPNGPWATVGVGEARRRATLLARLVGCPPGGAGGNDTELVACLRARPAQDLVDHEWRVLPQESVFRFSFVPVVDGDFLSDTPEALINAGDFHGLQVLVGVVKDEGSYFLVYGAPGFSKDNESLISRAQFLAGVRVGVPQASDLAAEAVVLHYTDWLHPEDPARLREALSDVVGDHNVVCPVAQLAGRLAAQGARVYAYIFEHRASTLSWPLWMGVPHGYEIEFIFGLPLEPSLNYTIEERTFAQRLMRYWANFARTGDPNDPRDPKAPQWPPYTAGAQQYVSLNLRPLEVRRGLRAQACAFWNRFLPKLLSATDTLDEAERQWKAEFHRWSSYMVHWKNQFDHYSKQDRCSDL
Description: Inhibition of bovine acetylcholinesterase using acetylcholine iodide as substrate incubated for 20 mins prior to substrate addition measured after 3 mins by Ellman's method

Acetylcholinesterase [3] = target: Acetylcholinesterase (Homo sapiens, UniProt P22303); test: Inhibition of human acetylcholinesterase
Acetylcholinesterase [4] = target: T1, Acetylcholinesterase; test: Mixed-type reversible inhibition of bovine acetylcholinesterase using S-acetylthiocholine as substrate incubated for 20 mins prior to substrate addition measured after 3 mins by Lineweaver-Burk plot analysis
Cholinesterase = Cholinesterase (Equus caballus, UniProt P81908)
Chain of Cholinesterase (P81908 whole entry): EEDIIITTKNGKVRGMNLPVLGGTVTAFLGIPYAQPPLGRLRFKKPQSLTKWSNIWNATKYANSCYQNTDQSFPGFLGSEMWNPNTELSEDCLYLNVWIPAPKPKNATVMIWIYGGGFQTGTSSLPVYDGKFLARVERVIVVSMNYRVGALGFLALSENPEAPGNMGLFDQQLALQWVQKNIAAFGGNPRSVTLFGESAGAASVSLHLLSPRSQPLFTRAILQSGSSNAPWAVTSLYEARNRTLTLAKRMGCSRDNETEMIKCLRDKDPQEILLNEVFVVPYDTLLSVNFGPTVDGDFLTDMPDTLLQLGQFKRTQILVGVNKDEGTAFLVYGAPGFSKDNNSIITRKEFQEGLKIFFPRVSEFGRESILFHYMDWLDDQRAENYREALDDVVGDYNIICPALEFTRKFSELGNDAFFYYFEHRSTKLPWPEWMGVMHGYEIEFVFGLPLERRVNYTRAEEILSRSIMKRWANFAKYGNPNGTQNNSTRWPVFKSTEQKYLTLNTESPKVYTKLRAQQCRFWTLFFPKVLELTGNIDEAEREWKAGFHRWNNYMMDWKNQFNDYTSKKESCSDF
Description: Inhibition of equine butyrylcholinesterase using butyrylthiocholine as substrate incubated for 20 mins prior to substrate addition measured after 3 mins by Ellman's method

Chain of Cholinesterase (Equus caballus) (P81908 whole entry): as above
Chain of Acetylcholinesterase (Homo sapiens, UniProt P22303) (P22303 whole entry): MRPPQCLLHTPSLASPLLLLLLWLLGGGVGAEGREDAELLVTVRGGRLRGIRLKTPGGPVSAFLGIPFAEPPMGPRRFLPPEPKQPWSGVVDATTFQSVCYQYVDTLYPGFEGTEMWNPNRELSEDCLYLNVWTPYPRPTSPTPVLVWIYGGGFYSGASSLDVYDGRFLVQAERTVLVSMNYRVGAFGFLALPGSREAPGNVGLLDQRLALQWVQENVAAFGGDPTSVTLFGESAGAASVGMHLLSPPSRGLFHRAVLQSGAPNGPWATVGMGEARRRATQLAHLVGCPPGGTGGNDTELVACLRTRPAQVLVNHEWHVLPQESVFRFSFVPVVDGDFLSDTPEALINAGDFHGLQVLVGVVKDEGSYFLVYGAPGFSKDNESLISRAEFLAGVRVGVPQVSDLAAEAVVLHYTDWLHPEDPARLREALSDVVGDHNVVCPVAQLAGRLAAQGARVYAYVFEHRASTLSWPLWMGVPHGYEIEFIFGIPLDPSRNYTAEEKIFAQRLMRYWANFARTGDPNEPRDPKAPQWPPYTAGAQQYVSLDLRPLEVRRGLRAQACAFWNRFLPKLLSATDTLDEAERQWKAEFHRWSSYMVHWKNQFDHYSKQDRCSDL

Compound | inhibition [1] [%] | IC50 (Acetylcholinesterase [2]) [nM] | IC50 (Acetylcholinesterase [3]) [nM] | Ki (Acetylcholinesterase [4]) [nM] | IC50 (Cholinesterase) [µM]
COc1cc2cc(C(=O)OCCCN(C)Cc3ccccc3)c(=O)oc2cc1OC | 38 | 111 |  |  | 
COc1cc2cc(NC(=O)CCCN(C)Cc3ccccc3)c(=O)oc2cc1OC | 43 | 330 |  |  | 
COc1cc2cc(NC(=O)[C@H]3CCC[C@@H](NCc4ccccc4)C3)c(=O)oc2cc1OC (relative stereo) |  | 7.6 | 43 | 8.6 | 33
COc1cc2cc(NC(=O)CN(C)Cc3ccccc3)c(=O)oc2cc1OC | 11 | 26000 |  |  | 
O=c1oc2ccccc2cc1OC1CCN(Cc2ccccc2)CC1 |  | 4500 |  |  | 7.9
COc1cc2cc(C(=O)NCCCN(C)Cc3ccccc3)c(=O)oc2cc1OC | 24 | 86 |  |  | 
COc1cc2cc(C(=O)NC3CCN(Cc4ccccc4)CC3)c(=O)oc2cc1OC | 19 | 28 |  |  | 
CN(CCCOc1cc2ccccc2oc1=O)Cc1ccccc1 |  | 4500 |  |  | 4
COc1cc2cc(OCC3CCN(Cc4ccccc4)CC3)c(=O)oc2cc1OC |  | 21 |  |  | 3.9
COc1cc2cc(OC3CCN(Cc4ccccc4)CC3)c(=O)oc2cc1OC | 36 | 1500 |  |  | 
CN(CCC(=O)Nc1cc2ccccc2oc1=O)Cc1ccccc1 | 0 | 66000 |  |  | 
COc1cc2cc(C(=O)N3CCN(Cc4ccccc4)CC3)c(=O)oc2cc1OC | 12 | 4000 |  |  | 
COc1ccc2cc(OC3CCN(Cc4ccccc4)CC3)c(=O)oc2c1 | 46 | 12000 |  |  | 
COc1cc2cc(C(=O)OC3CCN(Cc4ccccc4)CC3)c(=O)oc2cc1OC | 12 | 14 |  |  | 
COc1cc2cc(C(=O)OCC3CCN(Cc4ccccc4)CC3)c(=O)oc2cc1OC |  | 73 |  |  | 4.7
COc1cc2cc(C(=O)NCCCCN(C)Cc3ccccc3)c(=O)oc2cc1OC | 23 | 21 |  |  | 
COc1cc2cc(C(=O)NCCN(C)Cc3ccccc3)c(=O)oc2cc1OC | 15 | 9000 |  |  | 
COc1ccc2oc(=O)c(OC3CCN(Cc4ccccc4)CC3)cc2c1 | 34 | 7400 |  |  | 
COc1cc2cc(NC(=O)CCN(C)Cc3ccccc3)c(=O)oc2cc1OC | 0 | 14000 |  |  | 
